# In patent US8802597B2, “Herbicidal pyrimidines” (E I du Pont de Nemours and Company, priority 2003, dated 2014):
# Read-outs that look alike come from different tables or passages of the source.
# Experiments:
# Experiment in all cases: Test C pre/postemergence
# Type in all cases: in vivo
# soybean (Glycine max) = conditions: for Plant response rating, Soybean: Preemergence, scale 0 to 100, 0 no effect, 100 complete control
# How it was run: (§1)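 Visual injury ratings, 0 (no effect) to 100 (complete control), made 12 to 14 days after treatment by comparison with untreated controls. Greenhouse plants received test chemical in a surfactant-containing non-phytotoxic solvent, either preemergence on planted seeds or postemergence at the 1- to 4-leaf stage.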
# [1] = system: woolly cupgrass (Eriochloa villosa); conditions: for pest or weed control at 16 g/ha: 16 g ai/ha
# How it was run: as §1
# [2] = system: yellow nutsedge (Cyperus esculentus); conditions: for pest or weed control at 16 g/ha: 16 g ai/ha
# How it was run: as §1
# [3] = system: eastern black nightshade (Solanum ptycanthum); conditions: Preemergence, scale 0 to 100, 0 no effect, 100 complete control
# How it was run: as §1
# [4] = system: Surinam grass (Brachiaria decumbens); conditions: for pest or weed control at 16 g/ha: 16 g ai/ha
# How it was run: as §1
# [5] = system: lambsquarters (Chenopodium album); conditions: for pest or weed control at 16 g/ha: 16 g ai/ha; for pest or weed control at 62 g/ha: 62 g ai/ha
# How it was run: as §1
# [6] = system: bermudagrass (Cynodon dactylon); conditions: for pest or weed control at 16 g/ha: 16 g ai/ha
# How it was run: as §1
# [7] = system: velvetleaf (Abutilon theophrasti); conditions: for Plant response rating, Velvetleaf: Preemergence, scale 0 to 100, 0 no effect, 100 complete control
# How it was run: as §1
# [8] = system: common ragweed (Ambrosia elatior); conditions: for Plant response rating, Ragweed: Preemergence, scale 0 to 100, 0 no effect, 100 complete control
# How it was run: as §1
# [9] = system: morningglory (Ipomoea coccinea); conditions: for Plant response rating, Morningglory: Preemergence
# How it was run: as §1
# [10] = system: giant foxtail (Setaria faberii); conditions: for pest or weed control at 16 g/ha: 16 g ai/ha
# How it was run: as §1
# [11] = system: goosegrass (Eleusine indica); conditions: for pest or weed control at 16 g/ha: 16 g ai/ha
# How it was run: as §1
# [12] = Preemergence, 31 g ai/ha, scale 0 to 100, 0 no effect, 100 complete control
# [13] = Preemergence, 62 g ai/ha, scale 0 to 100, 0 no effect, 100 complete control
# [14] = Preemergence, 125 g ai/ha, scale 0 to 100
# [15] = Chenopodium album, post-emergence, Postemergence, read-out: Plant response rating (scale of 0 to 100), Lambsquarters
# [16] = Chenopodium album, pre-emergence, Preemergence, scale 0 to 100, 0 no effect, 100 complete control, read-out: Plant response rating, Lambsquarters
smiles,measurement,setting,value
"Nc1nc(C2CC2)nc(C(=O)O)c1Cl [Compound 135, 6-amino-5-chloro-2-cyclopropyl-4-pyrimidinecarboxylic acid]",plant injury at 16 g/ha,"soybean (Glycine max); Glycine max, post-emergence, Postemergence, 16 g ai/ha, read-out: Plant response rating (scale of 0 to 100), Soybean",100%
same,plant injury at 62 g/ha,"soybean (Glycine max); Glycine max, post-emergence, Postemergence, 62 g ai/ha, read-out: Plant response rating (scale of 0 to 100), Soybean",100%
same,plant injury at 125 g/ha,"soybean (Glycine max); Glycine max, post-emergence, Postemergence, 125 g ai/ha, scale 0 to 100 (0 no effect, 100 complete control), read-out: Soybean plant response rating",100%
same,"Plant response rating, Soybean",soybean (Glycine max); 16 g ai/ha,85
same,"Plant response rating, Soybean",soybean (Glycine max); 31 g ai/ha,95
same,"Plant response rating, Soybean",soybean (Glycine max); 62 g ai/ha,95
same,pest or weed control at 16 g/ha,"[1]; Eriochloa villosa, post-emergence, Postemergence, read-out: Plant response rating (scale of 0 to 100), Cupgrass, Woolly",30%
same,pest or weed control at 31 g/ha,"[1]; Eriochloa villosa, post-emergence, Postemergence, 31 g ai/ha, read-out: Plant response rating (scale of 0 to 100), Cupgrass, Woolly",60%
same,pest or weed control at 62 g/ha,"[1]; Eriochloa villosa, post-emergence, Postemergence, 62 g ai/ha, read-out: Plant response rating (scale of 0 to 100), Cupgrass, Woolly",60%
same,pest or weed control at 125 g/ha,"[1]; Eriochloa villosa, post-emergence, Postemergence, 125 g ai/ha, scale 0 to 100 (0 no effect, 100 complete control), read-out: Cupgrass, Woolly plant response rating",80%
same,pest or weed control at 16 g/ha,"[1]; Eriochloa villosa, pre-emergence, Preemergence, scale 0 to 100, 0 no effect, 100 complete control, read-out: Plant response rating, Cupgrass, Woolly",0%
same,"Plant response rating, Cupgrass, Woolly",[1]; [12],0
same,"Plant response rating, Cupgrass, Woolly",[1]; [13],0
same,"Plant response rating, Cupgrass, Woolly",[1]; [14],0
same,pest or weed control at 16 g/ha,"[2]; Cyperus, post-emergence, Postemergence, read-out: Plant response rating (scale of 0 to 100), Nutsedge, Yellow",0%
same,pest or weed control at 31 g/ha,"[2]; Cyperus, post-emergence, Postemergence, 31 g ai/ha, read-out: Plant response rating (scale of 0 to 100), Nutsedge, Yellow",0%
same,pest or weed control at 62 g/ha,"[2]; Cyperus, post-emergence, Postemergence, 62 g ai/ha, read-out: Plant response rating (scale of 0 to 100), Nutsedge, Yellow",15%
same,pest or weed control at 125 g/ha,"[2]; Cyperus, post-emergence, Postemergence, 125 g ai/ha, scale 0 to 100 (0 no effect, 100 complete control), read-out: Nutsedge, Yellow plant response rating",40%
same,pest or weed control at 16 g/ha,"[2]; Cyperus, pre-emergence, Preemergence, scale 0 to 100, 0 no effect, 100 complete control, read-out: Plant response rating, Nutsedge, Yellow",0%
same,"Plant response rating, Nutsedge, Yellow",[2]; [12],0
same,"Plant response rating, Nutsedge, Yellow",[2]; [13],0
same,"Plant response rating, Nightshade",[3]; 31 g ai/ha,30
same,"Plant response rating, Nightshade",[3]; 62 g ai/ha,35
same,"Plant response rating, Nightshade",[3],50
same,pest or weed control at 16 g/ha,"[3]; Solanum, pre-emergence, 16 g ai/ha, read-out: Plant response rating, Nightshade",0%
same,"Plant response rating, Surinam Grass",[4]; [12],0
same,"Plant response rating, Surinam Grass",[4]; [13],0
same,pest or weed control at 125 g/ha,"[4]; Urochloa decumbens, post-emergence, Postemergence, 125 g ai/ha, scale 0 to 100 (0 no effect, 100 complete control), read-out: Surinam Grass plant response rating",60%
same,pest or weed control at 16 g/ha,"[4]; Urochloa decumbens, post-emergence, Postemergence, read-out: Plant response rating (scale of 0 to 100), Surinam Grass",45%
same,pest or weed control at 31 g/ha,"[4]; Urochloa decumbens, post-emergence, Postemergence, 31 g ai/ha, read-out: Plant response rating (scale of 0 to 100), Surinam Grass",50%
same,pest or weed control at 62 g/ha,"[4]; Urochloa decumbens, post-emergence, Postemergence, 62 g ai/ha, read-out: Plant response rating (scale of 0 to 100), Surinam Grass",60%
same,pest or weed control at 16 g/ha,"[4]; Urochloa decumbens, pre-emergence, Preemergence, scale 0 to 100, 0 no effect, 100 complete control, read-out: Plant response rating, Surinam Grass",0%
same,pest or weed control at 16 g/ha,[5]; [15],60%
same,pest or weed control at 31 g/ha,"[5]; Chenopodium album, post-emergence, Postemergence, 31 g ai/ha, read-out: Plant response rating (scale of 0 to 100), Lambsquarters",90%
same,pest or weed control at 62 g/ha,[5]; [15],90%
same,pest or weed control at 125 g/ha,"[5]; Chenopodium album, post-emergence, Postemergence, 125 g ai/ha, scale 0 to 100 (0 no effect, 100 complete control), read-out: Lambsquarters plant response rating",95%
same,pest or weed control at 16 g/ha,[5]; [16],0%
same,pest or weed control at 62 g/ha,[5]; [16],70%
same,"Plant response rating, Lambsquarters",[5]; [12],70
same,"Plant response rating, Lambsquarters",[5]; [14],90
same,pest or weed control at 16 g/ha,"[6]; Cynodon dactylon, post-emergence, Postemergence, read-out: Plant response rating (scale of 0 to 100), Bermudagrass",40%
same,pest or weed control at 62 g/ha,"[6]; Cynodon dactylon, post-emergence, Postemergence, 62 g ai/ha, scale 0 to 100 (0 no effect, 100 complete control), read-out: Bermudagrass plant response rating",60%
same,pest or weed control at 125 g/ha,"[6]; Cynodon dactylon, post-emergence, Postemergence, 125 g ai/ha, scale 0 to 100 (0 no effect, 100 complete control), read-out: Bermudagrass plant response rating",75%
same,pest or weed control at 16 g/ha,"[6]; Cynodon dactylon, pre-emergence, Preemergence, scale 0 to 100, 0 no effect, 100 complete control, read-out: Plant response rating, Bermudagrass",0%
same,"Plant response rating, Bermudagrass",[6]; [12],0
same,"Plant response rating, Bermudagrass",[6]; [13],0
same,"Plant response rating, Bermudagrass",[6]; [14],0
same,pest or weed control at 16 g/ha,"[7]; Abutilon theophrasti, post-emergence, Postemergence, 16 g ai/ha, read-out: Plant response rating (scale of 0 to 100), Velvetleaf",55%
same,pest or weed control at 31 g/ha,"[7]; Abutilon theophrasti, post-emergence, Postemergence, 31 g ai/ha, read-out: Plant response rating (scale of 0 to 100), Velvetleaf",90%
same,pest or weed control at 125 g/ha,"[7]; Abutilon theophrasti, post-emergence, Postemergence, 125 g ai/ha, scale 0 to 100 (0 no effect, 100 complete control), read-out: Velvetleaf plant response rating",95%
same,"Plant response rating, Velvetleaf",[7]; 16 g ai/ha,60
same,"Plant response rating, Velvetleaf",[7]; 31 g ai/ha,85
same,"Plant response rating, Velvetleaf",[7]; 62 g ai/ha,90
same,pest or weed control at 16 g/ha,"[8]; Ambrosia artemisiifolia, post-emergence, Postemergence, 16 g ai/ha, read-out: Plant response rating (scale of 0 to 100), Ragweed",75%
same,pest or weed control at 31 g/ha,"[8]; Ambrosia artemisiifolia, post-emergence, Postemergence, 31 g ai/ha, read-out: Plant response rating (scale of 0 to 100), Ragweed",80%
same,pest or weed control at 62 g/ha,"[8]; Ambrosia artemisiifolia, post-emergence, Postemergence, 62 g ai/ha, read-out: Plant response rating (scale of 0 to 100), Ragweed",85%
same,pest or weed control at 125 g/ha,"[8]; Ambrosia artemisiifolia, post-emergence, Postemergence, 125 g ai/ha, scale 0 to 100 (0 no effect, 100 complete control), read-out: Ragweed plant response rating",95%
same,"Plant response rating, Ragweed",[8]; 16 g ai/ha,5
same,"Plant response rating, Ragweed",[8]; 62 g ai/ha,35
same,"Plant response rating, Ragweed",[8],70
same,pest or weed control at 16 g/ha,"[9]; Ipomoea, post-emergence, Postemergence, 16 g ai/ha, read-out: Plant response rating (scale of 0 to 100), Morningglory",80%
same,pest or weed control at 31 g/ha,"[9]; Ipomoea, post-emergence, Postemergence, 31 g ai/ha, read-out: Plant response rating (scale of 0 to 100), Morningglory",90%
same,pest or weed control at 62 g/ha,"[9]; Ipomoea, post-emergence, Postemergence, 62 g ai/ha, read-out: Plant response rating (scale of 0 to 100), Morningglory",95%
same,pest or weed control at 125 g/ha,"[9]; Ipomoea, post-emergence, Postemergence, 125 g ai/ha, scale 0 to 100 (0 no effect, 100 complete control), read-out: Morningglory plant response rating",95%
same,"Plant response rating, Morningglory","[9]; 16 g ai/ha, scale 0 to 100, 0 no effect, 100 complete control",85
same,"Plant response rating, Morningglory","[9]; 31 g ai/ha, scale 0 to 100, 0 no effect, 100 complete control",90
same,"Plant response rating, Morningglory","[9]; 62 g ai/ha, scale 0 to 100, 0 no effect, 100 complete control",90
same,"Plant response rating, Morningglory","[9]; 125 g ai/ha, scale 0 to 100",100
same,"Plant response rating, Foxtail, Giant",[10]; [12],0
same,"Plant response rating, Foxtail, Giant",[10]; [13],0
same,"Plant response rating, Foxtail, Giant",[10]; [14],0
same,pest or weed control at 125 g/ha,"[10]; Setaria faberi, post-emergence, Postemergence, 125 g ai/ha, scale 0 to 100 (0 no effect, 100 complete control), read-out: Foxtail, Giant plant response rating",75%
same,pest or weed control at 16 g/ha,"[10]; Setaria faberi, post-emergence, Postemergence, read-out: Plant response rating (scale of 0 to 100), Foxtail, Giant",10%
same,pest or weed control at 31 g/ha,"[10]; Setaria faberi, post-emergence, Postemergence, 31 g ai/ha, read-out: Plant response rating (scale of 0 to 100), Foxtail, Giant",60%
same,pest or weed control at 62 g/ha,"[10]; Setaria faberi, post-emergence, Postemergence, 62 g ai/ha, read-out: Plant response rating (scale of 0 to 100), Foxtail, Giant",65%
same,pest or weed control at 16 g/ha,"[10]; Setaria faberi, pre-emergence, Preemergence, scale 0 to 100, 0 no effect, 100 complete control, read-out: Plant response rating, Foxtail, Giant",0%
same,pest or weed control at 16 g/ha,"[11]; Eleusine indica, post-emergence, Postemergence, read-out: Plant response rating (scale of 0 to 100), Goosegrass",5%
same,pest or weed control at 31 g/ha,"[11]; Eleusine indica, post-emergence, Postemergence, 31 g ai/ha, read-out: Plant response rating (scale of 0 to 100), Goosegrass",35%
same,pest or weed control at 62 g/ha,"[11]; Eleusine indica, post-emergence, Postemergence, 62 g ai/ha, read-out: Plant response rating (scale of 0 to 100), Goosegrass",45%
same,pest or weed control at 125 g/ha,"[11]; Eleusine indica, post-emergence, Postemergence, 125 g ai/ha, scale 0 to 100 (0 no effect, 100 complete control), read-out: Goosegrass plant response rating",55%
same,pest or weed control at 16 g/ha,"[11]; Eleusine indica, pre-emergence, Preemergence, scale 0 to 100, 0 no effect, 100 complete control, read-out: Plant response rating, Goosegrass",0%
same,"Plant response rating, Goosegrass",[11]; [12],0
same,"Plant response rating, Goosegrass",[11]; [13],0
same,"Plant response rating, Goosegrass",[11]; [14],40
